Reference: ChEMBL document CHEMBL2413072, “Synthesis and in vitro anticancer studies of novel C-2 arylidene congeners of lantadenes” (2013)

Key:
Type in all cases: functional
Malme-3M [1] = experiment: Growth inhibition of human MALME-3M cells assessed as cell growth at 10^-4 M by sulforhodamine B assay; conditions: read-out: Activity
LOX IMVI = experiment: Growth inhibition of human LOXIMVI cells by sulforhodamine B assay
ACHN = experiment: Growth inhibition of human ACHN cells by sulforhodamine B assay
TK-10 [2] = experiment: Growth inhibition of human TK10 cells assessed as cell growth at 10^-7 M by sulforhodamine B assay; conditions: read-out: Activity
SNB-19 = experiment: Growth inhibition of human SNB19 cells assessed as cell growth at 10^-8 M by sulforhodamine B assay; conditions: read-out: Activity
UACC-257 = experiment: Growth inhibition of human UACC257 cells by sulforhodamine B assay
MOLT-4 = experiment: Growth inhibition of human MOLT4 cells by sulforhodamine B assay
HL-60(TB) = experiment: Growth inhibition of human HL-60(TB) cells assessed as cell growth at 10^-8 M by sulforhodamine B assay; conditions: read-out: Activity
[3] = Growth inhibition of human Hs 578T cells assessed as cell growth at 10^-7 M by sulforhodamine B assay; conditions: read-out: Activity
SR = experiment: Growth inhibition of human SR cells by sulforhodamine B assay
T47D = experiment: Growth inhibition of human T47D cells assessed as cell growth at 10^-7 M by sulforhodamine B assay; conditions: read-out: Activity
OVCAR-4 = experiment: Growth inhibition of human OVCAR4 cells by sulforhodamine B assay
SF-539 = experiment: Growth inhibition of human SF539 cells by sulforhodamine B assay
SF-268 [4] = experiment: Growth inhibition of human SF268 cells assessed as cell growth at 10^-7 M by sulforhodamine B assay; conditions: read-out: Activity
OVCAR-3 = experiment: Growth inhibition of human OVCAR3 cells assessed as cell growth at 10^-6 M by sulforhodamine B assay; conditions: read-out: Activity
[5] = Growth inhibition of human HCC2998 cells assessed as cell growth at 10^-7 M by sulforhodamine B assay; conditions: HCC 2998, read-out: Activity
Malme-3M [6] = experiment: Growth inhibition of human MALME-3M cells assessed as cell growth at 10^-6 M by sulforhodamine B assay; conditions: read-out: Activity
RPMI-8226 = experiment: Growth inhibition of human RPMI8226 cells assessed as cell growth at 10^-4 M by sulforhodamine B assay; conditions: read-out: Activity
CAKI-1 = experiment: Growth inhibition of human CAKI-1 cells assessed as cell growth at 10^-4 M by sulforhodamine B assay; conditions: read-out: Activity
MDA-MB-435 = experiment: Growth inhibition of human MDA-MB-435 cells assessed as cell growth at 10^-4 M by sulforhodamine B assay; conditions: read-out: Activity
TK-10 [7] = experiment: Growth inhibition of human TK10 cells by sulforhodamine B assay
NCI-H460 = experiment: Growth inhibition of human NCI-H460 cells assessed as cell growth at 10^-4 M by sulforhodamine B assay; conditions: read-out: Activity
MCF7 = experiment: Growth inhibition of human MCF7 cells assessed as cell growth at 10^-7 M by sulforhodamine B assay; conditions: read-out: Activity
M14 = experiment: Growth inhibition of human M14 cells assessed as cell growth at 10^-6 M by sulforhodamine B assay; conditions: read-out: Activity
BT-549 = experiment: Growth inhibition of human BT549 cells assessed as cell growth at 10^-6 M by sulforhodamine B assay; conditions: read-out: Activity
HOP-92 = experiment: Growth inhibition of human HOP92 cells assessed as cell growth at 10^-6 M by sulforhodamine B assay; conditions: read-out: Activity
IGROV-1 = experiment: Growth inhibition of human IGROV1 cells assessed as cell growth at 10^-6 M by sulforhodamine B assay; conditions: read-out: Activity
RXF 393 = experiment: Growth inhibition of human RXF393 cells by sulforhodamine B assay
SK-MEL-5 = experiment: Growth inhibition of human SK-MEL-5 cells assessed as cell growth at 10^-8 M by sulforhodamine B assay; conditions: read-out: Activity
SF-268 [8] = experiment: Growth inhibition of human SF268 cells by sulforhodamine B assay
[9] = read-out: LC50 (the source's name)
[10] = read-out: pLC50 (the source's name) (converted)

## CC1(C)C[C@@H](O)[C@]2(C(=O)O)CC[C@]3(C)C(=CC[C@@H]4[C@@]5(C)C/C(=C\C=C\c6ccccc6)C(=O)C(C)(C)[C@@H]5CC[C@]43C)[C@@H]2C1
Malme-3M [1]
  growth at 100 µM: -60%
LOX IMVI; read-out: GI50
  GI50: 1900 nM
LOX IMVI; [9]
  CC50: 6.68 µM
LOX IMVI; read-out: TGI
  TGI: 3.56 µM
LOX IMVI; read-out: pGI50 (converted)
  GI50: 1910 nM
LOX IMVI; [10]
  CC50: 6.61 µM
LOX IMVI; read-out: pTGI (converted)
  TGI: 3.55 µM
ACHN; read-out: GI50
  GI50: 3.65 µM
ACHN; [9]
  CC50: 39.2 µM
ACHN; read-out: TGI
  TGI: 13.3 µM
ACHN; read-out: pGI50 (converted)
  GI50: 3.63 µM
ACHN; [10]
  CC50: 38.9 µM
ACHN; read-out: pTGI (converted)
  TGI: 13.2 µM
TK-10 [2]
  growth at 0.1 µM: 93%
SNB-19
  growth at 0.01 µM: 94%
UACC-257; read-out: GI50
  GI50: 2620 nM
UACC-257; [9]
  CC50: 35.1 µM
UACC-257; read-out: TGI
  TGI: 9.01 µM
UACC-257; read-out: pGI50 (converted)
  GI50: 2630 nM
UACC-257; [10]
  CC50: 35.5 µM
UACC-257; read-out: pTGI (converted)
  TGI: 8.91 µM
MOLT-4; read-out: GI50
  GI50: 2480 nM
MOLT-4; [9]
  CC50: > 100 µM
MOLT-4; read-out: TGI
  TGI: 7.84 µM
MOLT-4; read-out: pGI50 (converted)
  GI50: 2450 nM
MOLT-4; [10]
  CC50: > 100 µM
MOLT-4; read-out: pTGI (converted)
  TGI: 7.76 µM
HL-60(TB)
  growth at 0.01 µM: 101%
[3]
  growth at 0.1 µM: 92%
SR; read-out: GI50
  GI50: 2480 nM
SR; [9]
  CC50: > 100 µM
SR; read-out: TGI
  TGI: 6.91 µM
SR; read-out: pGI50 (converted)
  GI50: 2450 nM
SR; [10]
  CC50: > 100 µM
SR; read-out: pTGI (converted)
  TGI: 6.92 µM
T47D
  growth at 0.1 µM: 96%
OVCAR-4; read-out: GI50
  GI50: 3.85 µM
OVCAR-4; [9]
  CC50: 40.2 µM
OVCAR-4; read-out: TGI
  TGI: 15.4 µM
OVCAR-4; read-out: pGI50 (converted)
  GI50: 3.89 µM
OVCAR-4; [10]
  CC50: 39.8 µM
OVCAR-4; read-out: pTGI (converted)
  TGI: 15.5 µM
SF-539; read-out: GI50
  GI50: 2860 nM
SF-539; [9]
  CC50: 36.7 µM
SF-539; read-out: TGI
  TGI: 10.6 µM
SF-539; read-out: pGI50 (converted)
  GI50: 2880 nM
SF-539; [10]
  CC50: 36.3 µM
SF-539; read-out: pTGI (converted)
  TGI: 10.7 µM
SF-268 [4]
  growth at 0.1 µM: 91%
OVCAR-3
  growth at 1 µM: 92%
[5]
  growth at 0.1 µM: 97%
Malme-3M [6]
  growth at 1 µM: 96%
RPMI-8226
  growth at 100 µM: -6%
CAKI-1
  growth at 100 µM: -49%
MDA-MB-435
  growth at 100 µM: -43%
TK-10 [7]; read-out: GI50
  GI50: 3.71 µM
TK-10 [7]; [9]
  CC50: 42.4 µM
TK-10 [7]; read-out: TGI
  TGI: 12.8 µM
TK-10 [7]; read-out: pGI50 (converted)
  GI50: 3.72 µM
TK-10 [7]; [10]
  CC50: 42.7 µM
TK-10 [7]; read-out: pTGI (converted)
  TGI: 12.9 µM
NCI-H460
  growth at 100 µM: -70%
MCF7
  growth at 0.1 µM: 92%
M14
  growth at 1 µM: 91%
BT-549
  growth at 1 µM: 100%
HOP-92
  growth at 1 µM: 76%
IGROV-1
  growth at 1 µM: 113%
RXF 393; read-out: GI50
  GI50: 2650 nM
RXF 393; [9]
  CC50: 29.7 µM
RXF 393; read-out: TGI
  TGI: 7.65 µM
RXF 393; read-out: pGI50 (converted)
  GI50: 2630 nM
RXF 393; [10]
  CC50: 29.5 µM
RXF 393; read-out: pTGI (converted)
  TGI: 7.59 µM
SK-MEL-5
  growth at 0.01 µM: 99%
SF-268 [8]; read-out: GI50
  GI50: 3.36 µM
SF-268 [8]; read-out: LC50
  LC50: 45.5 µM
SF-268 [8]; read-out: TGI
  TGI: 14 µM
SF-268 [8]; read-out: pGI50 (converted)
  GI50: 3.39 µM
SF-268 [8]; read-out: pLC50 (converted)
  LC50: 45.7 µM
SF-268 [8]; read-out: pTGI (converted)
  TGI: 14.1 µM
